Read-outs that look alike come from different tables or passages of the source.
Tests used:
[1] = system: pathogen of bacterial leaf streak (Xanthomonas oryzaes pv. Oryzicola); assay type: cell-based; conditions: for Inhibition rate of bacterial growth (%): immersed 24 h, growth observed after 3 d
rice seeds = conditions: seed soaking 24 h, tested after 6 d

In the case of `CCCCCCCCCCCC[N+](C)(C)Cc1ccccc1.[Br-]` [Dodecyl dimethyl benzyl ammonium bromide, dodecyl dimethyl benzyl ammonium bromide], the “inhibitory effect on the pathogen of bacterial leaf streak of rice (in words)” value ([1]; dilutions 1:500 to 1:2000) is reported as “a certain inhibitory effect”, the “Inhibition rate of bacterial growth (%)” value ([1]; multiple for dilution 500) is reported as 41% and the “Inhibition rate of bacterial growth (%)” value ([1]; multiple for dilution 1000) is reported as 32%. The “Inhibition rate of bacterial growth (%)” value ([1]; multiple for dilution 1500) was 30%, the “Inhibition rate of bacterial growth (%)” value ([1]; multiple for dilution 2000) was 23% and the “Bud length (mm)” value (rice seeds; multiple for dilution 1500) was 21 mm. The “Germination rate of seed (%)” value (rice seeds; multiple for dilution 1500) was 55%, the “Root length (mm)” value (rice seeds; multiple for dilution 1500) was 20 mm and the “Bud length (mm)” value (rice seeds; multiple for dilution 2000) was 26 mm. For the same compound, the “Germination rate of seed (%)” value (rice seeds; multiple for dilution 2000) was 56% and the “Root length (mm)” value (rice seeds; multiple for dilution 2000) was 28 mm.

Reference: patent publication US20240215587A1 (priority 2020, published 2024)
